Reference: article PMC3185947 (British Journal of Cancer, 2011)
Marks after values point to notes of the source that are not given here.

Tested on: patients with previously treated advanced NSCLC
Experiment: Erlotinib-related toxicities (worst grade per patient), NCI CTC Version 2.0
Type: in vivo, human
[1] = erlotinib 175–200 mg (N=13), non-cutaneous dose limiting toxicity reported
[2] = erlotinib 225–275 mg (N=18), non-cutaneous dose limiting toxicity reported

## C#Cc1cccc(Nc2ncnc3cc(OCCOC)c(OCCOC)cc23)c1 [erlotinib]
Total (N=42)
  Alopecia, grade 3–4: 0 (0) n (%)
  Alopecia, grade Any: 6 (14) n (%)
  Anorexia, grade 3–4: 1 (2) n (%)
  Anorexia, grade Any: 11 (26) n (%)
  Creatinine, grade 3–4: 1 (2) n (%)
  Creatinine, grade Any: 1 (2) n (%)
  Diarrhea, grade 3–4: 1 (2) n (%)
  Diarrhea, grade Any: 33 (79) n (%)
  Epistaxis, grade 3–4: 0 (0) n (%)
  Epistaxis, grade Any: 5 (12) n (%)
  Fatigue, grade 3–4: 3 (7) n (%)
  Fatigue, grade Any: 17 (40) n (%)
  Headache, grade 3–4: 1 (2) n (%)
  Headache, grade Any: 1 (2) n (%)
  Nausea, grade 3–4: 0 (0) n (%)
  Nausea, grade Any: 22 (52) n (%)
  Paronychia, grade 3–4: 1 (2) n (%)
  Paronychia, grade Any: 5 (12) n (%)
  Skin fissures, grade 3–4: 1 (2) n (%)
  Skin fissures, grade Any: 5 (12) n (%)
  Stomatitis, grade 3–4: 0 (0) n (%)
  Stomatitis, grade Any: 14 (33) n (%)
  Vomiting, grade 3–4: 0 (0) n (%)
  Vomiting, grade Any: 15 (36) n (%)
All 42 patients
  Diarrhea, frequency: 79%
  Fatigue, frequency: 40%
  Nausea, frequency: 52 % of patients
  Stomatitis, frequency: 33%
  Vomiting, frequency: 36%
Erlotinib 100–150 mg (N=4)
  Alopecia, grade 3–4: 0 (0) n (%)
  Alopecia, grade Any: 0 (0) n (%)
  Anorexia, grade 3–4: 0 (0) n (%)
  Anorexia, grade Any: 2 (50) n (%)
  Creatinine, grade 3–4: 0 (0) n (%)
  Creatinine, grade Any: 0 (0) n (%)
  Diarrhea, grade 3–4: 0 (0) n (%)
  Diarrhea, grade Any: 4 (100) n (%)
  Epistaxis, grade 3–4: 0 (0) n (%)
  Epistaxis, grade Any: 0 (0) n (%)
  Fatigue, grade 3–4: 0 (0) n (%)
  Fatigue, grade Any: 3 (75) n (%)
  Headache, grade 3–4: 0 (0) n (%)
  Headache, grade Any: 0 (0) n (%)
  Nausea, grade 3–4: 0 (0) n (%)
  Nausea, grade Any: 3 (75) n (%)
  Paronychia, grade 3–4: 0 (0) n (%)
  Paronychia, grade Any: 0 (0) n (%)
  Skin fissures, grade 3–4: 0 (0) n (%)
  Skin fissures, grade Any: 1 (25) n (%)
  Stomatitis, grade 3–4: 0 (0) n (%)
  Stomatitis, grade Any: 2 (50) n (%)
  Vomiting, grade 3–4: 0 (0) n (%)
  Vomiting, grade Any: 2 (50) n (%)
Erlotinib 175–200 mg (N=13)
  Alopecia, grade 3–4: 0 (0) n (%)
  Alopecia, grade Any: 0 (0) n (%)
  Anorexia, grade 3–4: 0 (0) n (%)
  Anorexia, grade Any: 0 (0) n (%)
  Creatinine, grade Any: 1 (8) n (%)
  Diarrhea, grade 3–4: 0 (0) n (%)
  Diarrhea, grade Any: 9 (69) n (%)
  Epistaxis, grade 3–4: 0 (0) n (%)
  Epistaxis, grade Any: 0 (0) n (%)
  Fatigue, grade Any: 4 (31) n (%)
  Headache, grade 3–4: 0 (0) n (%)
  Headache, grade Any: 0 (0) n (%)
  Nausea, grade 3–4: 0 (0) n (%)
  Nausea, grade Any: 5 (38) n (%)
  Paronychia, grade 3–4: 0 (0) n (%)
  Paronychia, grade Any: 0 (0) n (%)
  Skin fissures, grade 3–4: 0 (0) n (%)
  Skin fissures, grade Any: 0 (0) n (%)
  Stomatitis, grade 3–4: 0 (0) n (%)
  Stomatitis, grade Any: 5 (38) n (%)
  Vomiting, grade 3–4: 0 (0) n (%)
  Vomiting, grade Any: 5 (38) n (%)
[1]
  Creatinine, grade 3–4: 1 (8) ^a n (%)
  Fatigue, grade 3–4: 1 (8) ^a n (%)
Erlotinib 225–275 mg (N=18)
  Alopecia, grade 3–4: 0 (0) n (%)
  Alopecia, grade Any: 4 (22) n (%)
  Anorexia, grade Any: 6 (33) n (%)
  Creatinine, grade 3–4: 0 (0) n (%)
  Creatinine, grade Any: 0 (0) n (%)
  Diarrhea, grade 3–4: 1 (6) n (%)
  Diarrhea, grade Any: 13 (72) n (%)
  Epistaxis, grade 3–4: 0 (0) n (%)
  Epistaxis, grade Any: 3 (17) n (%)
  Fatigue, grade Any: 6 (33) n (%)
  Headache, grade Any: 1 (6) n (%)
  Nausea, grade 3–4: 0 (0) n (%)
  Nausea, grade Any: 9 (50) n (%)
  Paronychia, grade 3–4: 0 (0) n (%)
  Paronychia, grade Any: 3 (17) n (%)
  Skin fissures, grade 3–4: 1 (6) n (%)
  Skin fissures, grade Any: 2 (11) n (%)
  Stomatitis, grade 3–4: 0 (0) n (%)
  Stomatitis, grade Any: 6 (33) n (%)
  Vomiting, grade 3–4: 0 (0) n (%)
  Vomiting, grade Any: 5 (28) n (%)
[2]
  Anorexia, grade 3–4: 1 (6) ^a n (%)
  Fatigue, grade 3–4: 2 (11) ^a n (%)
  Headache, grade 3–4: 1 (6) ^a n (%)
Erlotinib ⩾300 mg (N=7)
  Alopecia, grade 3–4: 0 (0) n (%)
  Alopecia, grade Any: 2 (29) n (%)
  Anorexia, grade 3–4: 0 (0) n (%)
  Anorexia, grade Any: 3 (43) n (%)
  Creatinine, grade 3–4: 0 (0) n (%)
  Creatinine, grade Any: 0 (0) n (%)
  Diarrhea, grade 3–4: 0 (0) n (%)
  Diarrhea, grade Any: 7 (100) n (%)
  Epistaxis, grade 3–4: 0 (0) n (%)
  Epistaxis, grade Any: 2 (29) n (%)
  Fatigue, grade 3–4: 0 (0) n (%)
  Fatigue, grade Any: 4 (57) n (%)
  Headache, grade 3–4: 0 (0) n (%)
  Headache, grade Any: 0 (0) n (%)
  Nausea, grade 3–4: 0 (0) n (%)
  Nausea, grade Any: 5 (71) n (%)
  Paronychia, grade Any: 2 (29) n (%)
  Skin fissures, grade 3–4: 0 (0) n (%)
  Skin fissures, grade Any: 2 (29) n (%)
  Stomatitis, grade 3–4: 0 (0) n (%)
  Stomatitis, grade Any: 1 (14) n (%)
  Vomiting, grade 3–4: 0 (0) n (%)
  Vomiting, grade Any: 3 (43) n (%)
Erlotinib ⩾300 mg (N=7), non-cutaneous dose limiting toxicity reported
  Paronychia, grade 3–4: 1 (14) ^a n (%)
human, in vivo
  Non-cutaneous DLT: grade 3 anorexia: one
  Non-cutaneous DLT: grade 3 creatinine elevation: one
  Non-cutaneous DLT: grade 3 fatigue: three
  Non-cutaneous DLT: grade 3 headache: one
  Non-cutaneous DLT: grade 3 paronychia: one
  Patients who discontinued treatment due to protracted grade 3 anorexia and grade 2 nausea: One
Of 42 patients
  Patients who experienced non-cutaneous DLT: Seven
